The values that follow come from patent US12486256B2, “Crystal forms of crenolanib and methods of use thereof” (Arog Pharmaceuticals, Inc., priority 2020, dated 2025).

Assay type in all cases: physicochemical
A short description of series [1]: Competitive slurry, thermodynamic stability of crystalline forms. To be noted: competitive slurry conditions, Form III seeds present; monobenzenesulfonate.
A short description of series [2]: Dynamic Vapor Sorption (DVS), hygroscopicity of polymorphic forms. To be noted: for form change during DVS cycling / post-DVS (XRPD): XRPD of retained solid. The procedure:
Dynamic Vapor Sorption (DVS) was used to determine the hygroscopicity of stable polymorphic forms. Approximately 10-20 milligrams of sample was placed in to a mesh vapor sorption balance pan and loaded into an intrinsic dynamic vapor sorption balance by Surface Measurement Systems. The sample was subjected to ramping profile from 40-90% relative humidity (RH) at 10% increments, maintain the sample at each step until as table weight had been achieved (dm/dt 0.0004%, minimum step length 30 minutes, maximum step length 500 minutes) at 25° C. After completion of the sorption cycle, the sample was dried using the same procedure to 0% RH and then a second sorption cycle back to 40% RH. Two cycles were performed. The weight change during the sorption/desorption cycles were plotted, allowing for the hygroscopic nature of the sample tot be determined. XRPD was then carried out on any solid retained to determine if there was change between polymorphic forms during the process.

The nature of series [3]: TGA/DSC, thermal degradation. To be noted: 10° C./min. Here is the method: Thermogravimetric Analysis/Differential Scanning calorimetry (TGA/DSC) was used to determine the phase transition and degradation points as well as the hydrated/solvated states of the various polymorphic forms identified. Approximately 5-10 milligrams of material was added into a pre-tared open aluminum pan and loaded into a TA Instruments SDT 650 Auto-Simultaneous DSC and held at room temperature. The sample was then heated at a rate of 10° C./min from 30° C. to 400° C. during which time the change in sample weight was recorded along with the heat flow response (DSC). Nitrogen was used as the sample purge gas, at a flow rate of 200 cm^3/min. Skilled artisans will appreciate that ambient laboratory conditions may cause slight variability in these readings.

The nature of series [4]: Solubility in aqueous solutions. To be noted: aqueous solutions at neutral pH.
Where [5] appears, read: DVS, 25° C., monobenzenesulfonate.
[6] abbreviates: DVS at 90% relative humidity, 25° C., monobenzenesulfonate.

For the molecule `CC1(COc2ccc3c(c2)ncn3-c2ccc3cccc(N4CCC(N)CC4)c3n2)COC1.O=S(=O)(O)c1ccccc1` [Form I, 1-[2-[5-[(3-Methyl-3-oxetanyl)methoxy]-1H-benzimidazol-1-yl]-8-quinolinyl]-4-piperidinamine monobenzenesulfonate], the “thermodynamic stability / form conversion” value in series [1] is given as “will convert to Form III”. In series [2] (monobenzenesulfonate), the “form change during DVS cycling / post-DVS (XRPD)” value was “No form change”. Moreover, the hygroscopicity result in series [2] (setting [5]) is “non-hygroscopic”.
On to `CC1(COc2ccc3c(c2)ncn3-c2ccc3cccc(N4CCC(N)CC4)c3n2)COC1.O=S(=O)(O)c1ccccc1` [Form II, 1-[2-[5-[(3-Methyl-3-oxetanyl)methoxy]-1H-benzimidazol-1-yl]-8-quinolinyl]-4-piperidinamine monobenzenesulfonate], for which the “onset of thermal degradation” value in series [3] amounted to 165 °C. Further, the mass uptake entry in series [2] (setting [6]) was “approximately 1.5%”. Also, the “form change during DVS cycling / post-DVS (XRPD)” value in series [2] (monobenzenesulfonate) is “No form change”. Further, the hygroscopicity entry in series [2] (setting [5]) is recorded as “slightly hygroscopic”. Also, in series [4], the “solubility relative to other forms” value was “more soluble in aqueous solutions at neutral pH than the anhydrous Forms I and III”.
Take `CC1(COc2ccc3c(c2)ncn3-c2ccc3cccc(N4CCC(N)CC4)c3n2)COC1.O=S(=O)(O)c1ccccc1` [Form III, 1-[2-[5-[(3-Methyl-3-oxetanyl)methoxy]-1H-benzimidazol-1-yl]-8-quinolinyl]-4-piperidinamine monobenzenesulfonate]: in series [1], the “thermodynamic stability / form conversion” value is listed as “most thermodynamically stable crystalline form”. In series [2] (setting [6]), the mass uptake result is on record as “approximately 1.5%”. The “form change during DVS cycling / post-DVS (XRPD)” value in series [2] (monobenzenesulfonate) is recorded as “No form change”. In addition, in series [2] (setting [5]), the hygroscopicity entry was “slightly hygroscopic”.
`CC1(COc2ccc3c(c2)ncn3-c2ccc3cccc(N4CCC(N)CC4)c3n2)COC1.O=S(=O)(O)c1ccccc1` [Form IV, 1-[2-[5-[(3-Methyl-3-oxetanyl)methoxy]-1H-benzimidazol-1-yl]-8-quinolinyl]-4-piperidinamine monobenzenesulfonate]: the “onset of thermal degradation” value in series [3] (monobenzenesulfonate) amounted to 241 °C. Besides, the “form change during DVS cycling / post-DVS (XRPD)” value in series [2] (monobenzenesulfonate) was “converts to the hemi-hydrated Form II”. Besides, the hygroscopicity result in series [2] (setting [5]) was “hygroscopic”. In addition, the mass uptake in series [2] (DVS, desolvated form, between 0% and 10% humidity) is reported as 1.5%. Further, the “mass loss (desolvation)” value in series [2] (DVS, during the first cycle) turned out to be 9.4%.
